The values below are quoted from earlier work in US7713922B2, “Perfume compositions” (Quest International Services B.V., priority 2005, dated 2010).

Structures can show the parent of a compound that is named as a salt.

For the data set the following is noted: at 25° C.

Regarding `CC(CCO)CCc1ccccc1` (stereo not shown) [MEFROSOL, 3-METHYL-5-PHENYLPENTANOL], the “VP Class (vapour pressure class)” value is recorded as “I (vp greater than 3 micron Hg but less than 30 micron Hg at 25° C.)”.
With `C/C=C(\C)C(=O)OCc1ccccc1` [BENZYL TIGLATE, PHENYLMETHYL (2E)-2-METHYLBUT-2-ENOATE], the “VP Class (vapour pressure class)” value was “I (vp greater than 3 micron Hg but less than 30 micron Hg at 25° C.)”.
Turning to `CC(=O)c1ccccc1` [ACETOPHENONE], the “VP Class (vapour pressure class)” value was “III (vp at least 100 micron Hg at 25° C.)”.
For `COc1ccc(C=O)cc1` [ANISIC ALDEHYDE], the “VP Class (vapour pressure class)” value is “II (vp greater than 30 micron Hg but less than 100 micron at 25° C.)”.
On to `COC(=O)c1ccccc1O` [METHYL SALICYLATE], for which the “VP Class (vapour pressure class)” value is recorded as “III (vp at least 100 micron Hg at 25° C.)”.
For `OCCCc1ccccc1` [3-PHENYLPROPYL ALCOHOL], the “VP Class (vapour pressure class)” value was “I (vp greater than 3 micron Hg but less than 30 micron Hg at 25° C.)”.
On to `C=CCc1ccc(OC)c(OC)c1` [METHYL EUGENOL], for which the “VP Class (vapour pressure class)” value is recorded as “I (vp greater than 3 micron Hg but less than 30 micron Hg at 25° C.)”.
Take `CC(C)CCOCCc1ccccc1` [ANTHER, 2-PHENYLETHYL ISOAMYL ETHER]: the “VP Class (vapour pressure class)” value is reported as “II (vp greater than 30 micron Hg but less than 100 micron at 25° C.)”.
`CCCCCOC(=O)c1ccccc1O` [AMYL SALICYLATE]: the “VP Class (vapour pressure class)” value is reported as “I (vp greater than 3 micron Hg but less than 30 micron Hg at 25° C.)”.
With `O=COCCc1ccccc1` [PHENYLETHYL FORMATE], the “VP Class (vapour pressure class)” value is reported as “II (vp greater than 30 micron Hg but less than 100 micron at 25° C.)”.
Turning to `CC(=O)OC(C)c1ccccc1` (stereo not shown) [STYRALLYL ACETATE], the “VP Class (vapour pressure class)” value is recorded as “III (vp at least 100 micron Hg at 25° C.)”.
Consider `CC(C)OCCc1ccccc1` [PETIOLE, 2-PHENYLETHYL ISOPROPYL ETHER], for which the “VP Class (vapour pressure class)” value is recorded as “III (vp at least 100 micron Hg at 25° C.)”.
Turning to `CCOC(C)OCCc1ccccc1` (stereo not shown) [EFETAAL, (2-{[1-(ETHYLOXY)ETHYL]OXY}ETHYL)BENZENE], the “VP Class (vapour pressure class)” value is on record as “II (vp greater than 30 micron Hg but less than 100 micron at 25° C.)”.
On to `COCCc1ccccc1` [2-PHENYLETHYL METHYL ETHER], for which the “VP Class (vapour pressure class)” value was “III (vp at least 100 micron Hg at 25° C.)”.
`COc1ccc(C(C)=O)cc1` [para-METHOXYACETOPHENONE]: the “VP Class (vapour pressure class)” value is listed as “II (vp greater than 30 micron Hg but less than 100 micron at 25° C.)”.
Take `C=CCc1ccc(OC)cc1` [METHYL CHAVICOL, 4-METHOXY-1-(2-PROPENYL)-BENZENE]: the “VP Class (vapour pressure class)” value is given as “III (vp at least 100 micron Hg at 25° C.)”.
Regarding `OC/C=C/c1ccccc1` [CINNAMIC ALCOHOL], the “VP Class (vapour pressure class)” value was “I (vp greater than 3 micron Hg but less than 30 micron Hg at 25° C.)”.
In the case of `COc1ccc(C)cc1` [para-CRESYL METHYL ETHER], the “VP Class (vapour pressure class)” value is “III (vp at least 100 micron Hg at 25° C.)”.
Take `CC(C)(C)c1ccc(CC#N)cc1` [MARENIL, 4-TERT-BUTYLPHENYLACETONITRILE]: the “VP Class (vapour pressure class)” value is recorded as “I (vp greater than 3 micron Hg but less than 30 micron Hg at 25° C.)”.
Regarding `CC(C)COC(=O)c1ccccc1O` [ISOBUTYL SALICYLATE], the “VP Class (vapour pressure class)” value is “I (vp greater than 3 micron Hg but less than 30 micron Hg at 25° C.)”.
Turning to 2,4-DIMETHYL-6-PHENYLDIHYDROPYRAN, the “VP Class (vapour pressure class)” value is recorded as “I (vp greater than 3 micron Hg but less than 30 micron Hg at 25° C.)”.
As for `CC(=O)c1ccc(C)cc1` [para-METHYLACETOPHENONE], the “VP Class (vapour pressure class)” value is listed as “III (vp at least 100 micron Hg at 25° C.)”.
In the case of `CCOC(=O)c1ccccc1` [ETHYL BENZOATE], the “VP Class (vapour pressure class)” value is reported as “III (vp at least 100 micron Hg at 25° C.)”.
As to `COC(=O)C=Cc1ccccc1` [METHYL CINNAMATE], the “VP Class (vapour pressure class)” value was “I (vp greater than 3 micron Hg but less than 30 micron Hg at 25° C.)”.
For `CC(C=O)Cc1ccc(C(C)C)cc1` (stereo not shown) [CYCLAMEN ALDEHYDE, 2-METHYL-3-(4′-ISO-PROPYLPHENYL)PROPANAL], the “VP Class (vapour pressure class)” value is “I (vp greater than 3 micron Hg but less than 30 micron Hg at 25° C.)”.
On to `CC(C)c1cccc(C(C)CC=O)c1` (stereo not shown) [FLORHYDRAL], for which the “VP Class (vapour pressure class)” value is given as “I (vp greater than 3 micron Hg but less than 30 micron Hg at 25° C.)”.
In the case of `CC(=O)OCCc1ccccc1` [PHENYLETHYL ACETATE], the “VP Class (vapour pressure class)” value is reported as “II (vp greater than 30 micron Hg but less than 100 micron at 25° C.)”.
For `COC(=O)c1ccccc1` [METHYL BENZOATE], the “VP Class (vapour pressure class)” value is “III (vp at least 100 micron Hg at 25° C.)”.
In the case of `CC(=O)CCc1ccccc1` [BENZYL ACETONE], the “VP Class (vapour pressure class)” value was “II (vp greater than 30 micron Hg but less than 100 micron at 25° C.)”.
In the case of `c1ccc(Oc2ccccc2)cc1` [DIPHENYL OXIDE], the “VP Class (vapour pressure class)” value was “I (vp greater than 3 micron Hg but less than 30 micron Hg at 25° C.)”.
As to `CC1CC(C)(c2ccccc2)CO1` (stereo not shown) [RHUBAFURAN], the “VP Class (vapour pressure class)” value was “II (vp greater than 30 micron Hg but less than 100 micron at 25° C.)”.
For the molecule `CC(CC=O)CCc1ccccc1` (stereo not shown) [MEFRANAL, 3-METHYL-5-PHENYLPENTANAL], the “VP Class (vapour pressure class)” value is on record as “I (vp greater than 3 micron Hg but less than 30 micron Hg at 25° C.)”.
Regarding `COC(=O)Cc1ccccc1` [METHYL PHENYLACETATE], the “VP Class (vapour pressure class)” value is “III (vp at least 100 micron Hg at 25° C.)”.
`CC(=O)OCc1ccccc1` [BENZYL ACETATE]: the “VP Class (vapour pressure class)” value is listed as “III (vp at least 100 micron Hg at 25° C.)”.
For `CCc1ccc(CC(C)(C)C=O)cc1` [FLORALOZONE, 2,2-DIMETHYL-3-(PARA-ETHYL PHENYL)PROPANAL], the “VP Class (vapour pressure class)” value was “I (vp greater than 3 micron Hg but less than 30 micron Hg at 25° C.)”.
Turning to `CC(C=O)Cc1ccc2c(c1)OCO2` (stereo not shown) [AQUANAL], the “VP Class (vapour pressure class)” value is reported as “I (vp greater than 3 micron Hg but less than 30 micron Hg at 25° C.)”.
As to `CC(C)C(=O)OCCOc1ccccc1` [PHENOXYETHYL ISOBUTYRATE], the “VP Class (vapour pressure class)” value is “I (vp greater than 3 micron Hg but less than 30 micron Hg at 25° C.)”.
As to `CC(C)CCOC(=O)c1ccccc1O` [ISOAMYL SALICYLATE], the “VP Class (vapour pressure class)” value is recorded as “I (vp greater than 3 micron Hg but less than 30 micron Hg at 25° C.)”.
As for `CC=Cc1ccc(O)c(OC)c1` [ISOEUGENOL], the “VP Class (vapour pressure class)” value is recorded as “II (vp greater than 30 micron Hg but less than 100 micron at 25° C.)”.
`COC(Cc1ccccc1)OC`: the “VP Class (vapour pressure class)” value is on record as “III (vp at least 100 micron Hg at 25° C.)”.
Regarding `COC(=O)c1ccccc1N` [METHYL ANTHRANILATE], the “VP Class (vapour pressure class)” value is “I (vp greater than 3 micron Hg but less than 30 micron Hg at 25° C.)”.
`CC=Cc1ccc(OC)cc1` [ANETHOLE]: the “VP Class (vapour pressure class)” value is recorded as “II (vp greater than 30 micron Hg but less than 100 micron at 25° C.)”.
As to `C=CCc1ccc(O)c(OC)c1` [EUGENOL], the “VP Class (vapour pressure class)” value is “I (vp greater than 3 micron Hg but less than 30 micron Hg at 25° C.)”.
As for `COc1ccc(CC(C)C=O)cc1` (stereo not shown) [CANTHOXAL, 2-METHYL-3-(4-METHOXYPHENYL)PROPANAL], the “VP Class (vapour pressure class)” value was “I (vp greater than 3 micron Hg but less than 30 micron Hg at 25° C.)”.
Turning to `CC(C)(C)c1ccc(CCC=O)cc1` [BOURGEONAL, 3-(4-TERT.BUTYLPHENYL)PROPANAL], the “VP Class (vapour pressure class)” value is “I (vp greater than 3 micron Hg but less than 30 micron Hg at 25° C.)”.
Regarding `C=CCOC(=O)COc1ccccc1` [ALLYL PHENOXYACETATE], the “VP Class (vapour pressure class)” value is given as “I (vp greater than 3 micron Hg but less than 30 micron Hg at 25° C.)”.
